Data reported in article PMC6934184, “Selective DNA-PKcs inhibition extends the therapeutic index of localized radiotherapy and chemotherapy” (The Journal of Clinical Investigation, 2019).

Target: T1, FGFR1 (Homo sapiens, UniProt P11362)
T1 construct: purchased Thermo Fisher Scientific (Life Technologies) SelectScreen
Assay: SelectScreen Z'LYTE
Assay type: biochemical
Outline: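 NU5455 was profiled across the SelectScreen Broad panel of kinase activity and binding assays. Z'LYTE reactions such as CSF1R ran at apparent Km ATP, while the Adapta CAMK1 assay used ATP listed as 10. Values are given as percent.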

T1 sequence (P11362 22-822): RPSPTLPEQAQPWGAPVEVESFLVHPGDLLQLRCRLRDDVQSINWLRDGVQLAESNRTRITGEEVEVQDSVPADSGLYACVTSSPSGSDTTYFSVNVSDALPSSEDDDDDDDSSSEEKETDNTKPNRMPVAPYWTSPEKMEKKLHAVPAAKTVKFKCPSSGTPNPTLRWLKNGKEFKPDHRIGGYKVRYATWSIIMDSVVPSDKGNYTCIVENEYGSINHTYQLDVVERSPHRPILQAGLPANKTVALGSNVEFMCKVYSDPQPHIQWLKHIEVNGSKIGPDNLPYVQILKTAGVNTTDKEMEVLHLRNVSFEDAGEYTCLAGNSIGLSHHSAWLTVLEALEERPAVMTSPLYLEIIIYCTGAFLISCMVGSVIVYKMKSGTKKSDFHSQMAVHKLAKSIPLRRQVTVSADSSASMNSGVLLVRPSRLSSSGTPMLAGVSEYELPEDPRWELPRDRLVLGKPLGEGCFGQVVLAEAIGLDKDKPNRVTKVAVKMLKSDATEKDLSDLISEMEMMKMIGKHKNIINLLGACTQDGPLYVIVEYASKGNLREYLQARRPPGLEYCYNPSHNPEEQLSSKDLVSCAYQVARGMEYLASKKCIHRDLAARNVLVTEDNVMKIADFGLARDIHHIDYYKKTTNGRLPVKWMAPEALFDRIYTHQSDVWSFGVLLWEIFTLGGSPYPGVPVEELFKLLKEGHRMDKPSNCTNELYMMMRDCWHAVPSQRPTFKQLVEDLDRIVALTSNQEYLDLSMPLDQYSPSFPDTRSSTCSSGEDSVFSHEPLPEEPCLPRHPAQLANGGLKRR

## CN(C(=O)CN1CCOCC1)c1ccc2sc3c(-c4cccc5c(=O)cc(N6CC7CCC(C6)O7)oc45)cccc3c2c1 [NU5455]
  inhibition at 1 µM: 4.7%
